PubChem BioAssay AID463204 (Broad Institute, 2010)
The source made the active and inactive calls.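 The calls were made as follows: active = AC50 no more than ten times the top concentration tested, that is within one log above it; inconclusive = flat curve fit with activity between 30% and 70%, or invalid poor fit; inactive = AC50 beyond ten times the top tested dose.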

System: S. cerevisiae Mot1-301 ts growth rescue, BacTiter-Glo ATP luminescence
Test: growth rescue of Mot1-301 ts yeast, confirmation, SUMOylation pathway inhibitor project, whole organism, S. cerevisiae, Mot1-301 ts mutant, luminescence, dose retest (AID 463204);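 also: growth at restrictive 38.5 degrees C of Mot1-301 OY566 strain; actives raise luminescence by restoring growth of the ts mutant at high temperature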

SMILES | AC50
COc1cc([N+](=O)[O-])cc(/C=N/NC(=O)c2cc(C)nc3ccccc23)c1O | > 42 µM (inactive)
Cc1cc(C)cc(OCC(=O)Nc2ccc(N3CCN(C(=O)c4ccco4)CC3)cc2)c1 | > 42 µM (inactive)
COC(=O)c1ccncc1C(=O)Nc1ccc(Oc2ncc(C(F)(F)F)cc2Cl)cc1 | > 42 µM (inactive)
CC(C)(C)n1cnc2cc(NC(=O)c3ccc(Cl)cc3)ccc21 | > 42 µM (inactive)
COc1ccccc1NC(=O)COC(=O)CC(C)(C)CC1=NS(=O)(=O)c2ccccc2N1 | > 42 µM (inactive)
Cc1ccnc(NC(=O)c2ccc(Br)s2)c1 | > 42 µM (inactive)
Cc1ccc(-c2csc3ncn(CC(=O)N4CCOCC4)c(=O)c23)cc1 | > 42 µM (inactive)
CS(=O)(=O)N(CC(=O)N1CCCCCC1)Cc1ccc(Cl)cc1 | > 42 µM (inactive)
COC(=O)C1CCN(S(=O)(=O)Cc2ccccc2)CC1 | > 42 µM (inactive)
CCN(CC)C(=O)Cn1c(=O)n(CCCC(=O)NCc2ccccc2)c(=O)c2sccc21 | > 42 µM (inactive)
CCCCCCCN1C(Nc2ccccc2)=NC[C@@H]1CC(C)C | > 21 µM (inactive)
Cc1cc(=O)oc(C)c1C(=O)Nc1ccc(Cl)cn1 | > 42 µM (inactive)
N/C(=N\NC(=O)c1sccc1OCc1ccc(Cl)cc1Cl)c1ccccn1 | > 42 µM (inactive)
COCCn1c(SCC(=O)N2CCCC2)nnc1-c1ccoc1C | > 42 µM (inactive)
OC(COc1ccccc1)Cn1c2ccccc2c2ccccc21 (stereo not given) | 35.6 µM
Cc1ccc(C(=O)NCC(=O)Nc2ccc3c(c2)OCCO3)cc1 | > 21 µM (inactive)
O=c1c2ccccc2c2ccccc2c(=O)n1-c1ccccc1 | > 42 µM (inactive)
CN(C)c1ccc(CN(Cc2ccco2)C(=O)c2ccco2)cc1 | > 42 µM (inactive)
CCc1c(C(=O)N2CCN(c3ccccc3F)CC2)[nH]c(C)c1C(C)=O | > 42 µM (inactive)
COC(=O)C(NC(C)=O)(Nc1nc2ccc(S(C)(=O)=O)cc2s1)C(F)(F)F (stereo not given) | > 42 µM (inactive)
COc1ccc([N+](=O)[O-])c2c(=O)ccoc12 | > 42 µM (inactive)
Cc1ccc2cccc(OCc3nnc(SCC(=O)O)n3C)c2n1 | > 42 µM (inactive)
Cc1ccc(NC(=O)Nc2cccc(C(F)(F)F)c2)nc1 | > 42 µM (inactive)
O=C1CC(c2ccccc2)C(=O)N1c1cccc(O)c1 (stereo not given) | > 42 µM (inactive)
Cc1c(NC(=O)c2cc(-c3ccccc3O)on2)c(=O)n(-c2ccccc2)n1C | > 42 µM (inactive)

SMILES | AC50
Cc1ccc(NC(=O)Cn2nc(C)c3ccccc3c2=O)cc1 | > 42 µM (inactive)
CCC(NC(=O)c1ccccc1NC(=O)c1ccco1)C(=O)NC1CCCCC1 (stereo not given) | > 42 µM (inactive)
CCn1c(C)c(C(C)=O)c(N2CCN(c3ccc(F)cc3)CC2)nc1=S | > 42 µM (inactive)
O=CNCCCc1nc2ccccc2n1CCc1ccccc1 | > 42 µM (inactive)
COc1cc2ccccc2cc1C(=O)Nc1ccc(CN2CCOCC2)cc1 | > 42 µM (inactive)
CCOP(=O)(Cc1cc(C(=O)CC)c(C)o1)OCC | > 42 µM (inactive)
Cc1cc(S(=O)(=O)N2CCCCC2CCNC(=O)C(=O)NCC2CCCO2)ccc1F (stereo not given) | > 42 µM (inactive)
Cc1nc2ccccc2c(=O)n1CC(=O)N1CCOCC1 | > 42 µM (inactive)
CC(C)(C)C(=O)NC1(C(F)(F)F)NC(=O)N(c2ccccc2F)C1=O (stereo not given) | > 42 µM (inactive)
COc1ccc(N2C(=O)CCC(C(=O)NCc3cccnc3)C2c2ccc(OC)c(OC)c2)cc1 (stereo not given) | > 42 µM (inactive)
COc1cccc(C2/C(=C(/O)c3ccccc3)C(=O)C(=O)N2Cc2ccco2)c1 (stereo not given) | > 42 µM (inactive)
COc1ccc(C(=O)N(CCc2ccccc2)Cc2ccccc2)c(OC)n1 | > 42 µM (inactive)
C/C(=N\NC(=O)c1ccc(Cl)cc1)c1cccnc1 | > 42 µM (inactive)
CN1C(=O)NC(=O)[C@]2(Cc3ccccc3N3CCN(c4ccccc4)CC32)C1=O (stereo not given in full) | > 42 µM (inactive)
COC(=O)C1C2C=CC3(CN(CCc4ccccc4)C(=O)C13)O2 (stereo not given) | > 21 µM (inactive)
Cc1cccc(N=C2C(=O)Nc3c(Cl)cccc32)c1 | > 42 µM (inactive)
CCC(CC)NC(=O)c1oc2ccccc2c1COc1ccccc1 | > 42 µM (inactive)
CC1Cc2ccccc2N1C(=O)CNc1cccc(S(=O)(=O)N2CCCC2)c1 (stereo not given) | > 42 µM (inactive)
O=C(NCc1ccco1)C1CC(=O)N(c2ccc(Cl)cc2)C1 (stereo not given) | > 42 µM (inactive)
CC1CCCCC1N=CC1=C(O)CC(C)(C)CC1=O (stereo not given) | > 42 µM (inactive)
CC1(C)C2CC[C@]3(C)C(CC=C4[C@@H]5C[C@@](C)(CO)[C@@H](O)C[C@]56C[C@@H](OC6=O)[C@]43C)[C@@]2(C)CC[C@@H]1O (stereo not given in full) | > 42 µM (inactive)
CSc1ccccc1-c1nc(-c2ccncc2)no1 | > 42 µM (inactive)
CCC1=Nc2cc(C(=O)NCc3ccco3)ccc2Sc2ccccc21 | > 42 µM (inactive)
CCN1CCCC1CN(Cc1cc2ccc(C)cc2[nH]c1=O)C(=S)Nc1ccc(OC)cc1OC (stereo not given) | > 42 µM (inactive)
COc1ccccc1C(=O)NC(=O)COC(=O)Cc1ccccc1[N+](=O)[O-] | > 42 µM (inactive)

SMILES | AC50
COc1cc(CN2CCNC(=O)C2CC(=O)NCCc2ncccc2C)cc(OC)c1 (stereo not given) | > 42 µM (inactive)
CN1C(=O)c2cccc3c(Cl)ccc(c23)C1=O | > 42 µM (inactive)
O=C(CSc1cccc2cccnc12)Nc1cc(C(=O)O)cc(C(=O)O)c1 | > 42 µM (inactive)
CC1=C(C)CS(=O)N(S(=O)(=O)c2ccc(Cl)cc2)C1 (stereo not given) | 3.41 µM
O=Cc1ccc(Oc2cccc(C(F)(F)F)c2)nc1 | > 42 µM (inactive)
COc1ccc(NC(=O)CN(C)C(=O)/C=C/c2cn(-c3ccccc3)nc2-c2ccc(F)cc2)cc1 | > 42 µM (inactive)
C=CCn1c(-c2ccc(OC)cc2)nc2ccccc21 | > 42 µM (inactive)
COc1ccc(S(=O)(=O)Nc2ccc(NC(C)=O)cc2)cc1OC | > 42 µM (inactive)
O=c1[nH]cnc2ccc([N+](=O)[O-])cc12 | > 42 µM (inactive)
CCn1c(SCC(=O)OC)nnc1-c1ccncc1 | > 42 µM (inactive)
Cc1ccccc1-c1nc2ccc(Cl)cc2c(=O)n1O | > 42 µM (inactive)
COc1ccc(NC(=O)Cn2nnc(C(=O)Nc3ccc(F)c(Cl)c3)c2N)cc1 | > 42 µM (inactive)
O=c1cc(C(F)(F)F)c2sc(N3CCCCC3)nc2[nH]1 | > 42 µM (inactive)
Cc1cc(C(=O)COc2cccc3cccnc23)c(C)n1C | > 42 µM (inactive)
CCOc1ccc(N(C(C)C(=O)NC(C)CC)S(C)(=O)=O)cc1 (stereo not given) | > 42 µM (inactive)
COc1ccc(C(=O)COc2ccc3ccc(=O)oc3c2)cc1 | > 42 µM (inactive)
COc1ccccc1NC(=O)CSc1nc(O)c(Cc2ccccc2)c(=O)[nH]1 | > 42 µM (inactive)
CCOC(=O)c1cc2c(ccn2-c2ccc(F)cc2)n1CC(=O)N1CCN(C(=O)c2ccco2)CC1 | > 42 µM (inactive)
COc1ccc2c(Cl)c(C(=O)NN3CCN(C)CC3)sc2c1 | > 42 µM (inactive)
CCCOC(=O)c1c(-c2ccc(OC)cc2)oc2ccc(-c3ccc(OC)nc3)cc12 | > 42 µM (inactive)
C=CCN1c2ccccc2[C@]23C[C@@H](C(=O)OC)N=C2NC(C(=O)OC)=C(C(=O)OC)[C@H]13 | > 42 µM (inactive)
COc1ccc(C2=C(N)c3ccccc3C2=O)cc1 | > 42 µM (inactive)
CC(C)C(NC(=O)c1ccccc1)C(=O)NCC(c1ccccc1)N(C)C (stereo not given) | > 42 µM (inactive)
O=C(Nc1ccc2c(c1)oc1ccccc12)C1CC1 | > 42 µM (inactive)
CC(C)(C)Cc1nc(-c2ccccn2)no1 | > 42 µM (inactive)

SMILES | AC50
COc1ccccc1NC(=O)N1CCN(C(=O)Nc2ccccc2OC)CC1 | > 42 µM (inactive)
COc1ccc(/C=C/C(=O)NC(=S)Nc2ccccn2)cc1 | > 42 µM (inactive)
COC(=O)c1ccc(SCC(=O)N2CCC(C)CC2)c([N+](=O)[O-])c1 | > 42 µM (inactive)
CC(=O)Nc1ccc(/C(C)=N/NC(=O)c2ccncc2)cc1 | > 42 µM (inactive)
Cc1cccc(Cn2c(C(=O)OC(C)C)cc3c2ccn3C)c1 | > 42 µM (inactive)
CN(C)c1ccc(C(=O)N2CCCC(CCC(=O)N3CCN(c4ccccn4)CC3)C2)cc1 (stereo not given) | > 42 µM (inactive)
Cc1ccccc1-c1nnc(CN2CCC(C)CC2)o1 | > 42 µM (inactive)
COc1ccccc1N1CCN(C(=O)c2ccc(-c3ccccc3)cc2)CC1 | > 42 µM (inactive)
Cc1sc2nc(CN3CCCC3)nc(NCc3ccncc3)c2c1C | > 42 µM (inactive)
Cc1cc(C#Cc2c(-c3ccccc3)n(C)c3ccccc23)ccc1F | > 42 µM (inactive)
COC(=O)C1(Cc2cc(-c3ccccc3)no2)CCN(C(=O)OC(C)(C)C)CC1 | > 42 µM (inactive)
NC(=S)N/N=C/c1cccc(O)c1O | > 42 µM (inactive)
O=C1OC(Cc2ccccn2)C(O)=C1C1=NCCCN1 (stereo not given) | > 42 µM (inactive)
Nc1nnnn1CC(=O)N/N=C/c1cccs1 | > 42 µM (inactive)
CCOC(=O)C1CCCN(C(=O)/C=C/c2ccc(Cl)cc2)C1 (stereo not given) | > 42 µM (inactive)
Cc1ccc(-n2c(SCC(=O)N(C)C3CCS(=O)(=O)C3)nc3ccccc3c2=O)cc1 (stereo not given) | > 42 µM (inactive)
CCOc1ccc(C(C(=O)NC2CCCC2)N(C(=O)c2snc(C(N)=O)c2N)C2CCCC2)cc1 (stereo not given) | 42 µM
Cc1ccc2nc(/C(C#N)=C\c3cc(O)ccc3[N+](=O)[O-])[nH]c2c1 | > 42 µM (inactive)
COc1cc(C(=O)NCCOc2cc(C)cc(C)c2)cc(OC)c1OC | > 42 µM (inactive)
O=S1(=O)C=C(Sc2nnc(-c3ccccc3)o2)c2ccccc21 | 1.47 µM
CCCNC(=O)CN(c1ccc(F)cc1)S(=O)(=O)c1ccc2c(c1)OCCO2 | > 42 µM (inactive)
O=C(Nc1nc2ccccc2s1)c1cccc(S(=O)(=O)N2CCc3ccccc32)c1 | > 42 µM (inactive)
CC(=O)c1ccc(N=C2SCCCN2C(=O)C2CCCC2)cc1 | > 42 µM (inactive)
COc1ccc2c(C(=O)CN3CC(C)OC(C)C3)c[nH]c2c1 (stereo not given) | > 42 µM (inactive)
COc1cc(/C=N/NC(=S)NCc2ccco2)cc(OC)c1OC | > 42 µM (inactive)
